The record followed here is US10669271B2, “Heterocyclic compounds as immunomodulators” (Incyte Corporation, priority 2018, dated 2020).

One assay deals with PD-1/PD-L1 (Homo sapiens (Human), UniProt Q9NZQ7). Briefly: Homogeneous Time-Resolved Fluorescence (HTRF) PD-1/PD-L1 binding assay. The note with it: recombinant human PD-1 and PD-L1, 25° C., pH 7.4. The procedure: Example A. Homogeneous Time-Resolved Fluorescence (HTRF) PD-1/PD-L1 Binding Assay
The assays were conducted in a standard black 384-well polystyrene plate with a final volume of 20 μL. Inhibitors were first serially diluted in DMSO and then added to the plate wells before the addition of other reaction components. The final concentration of DMSO in the assay was 1%. The assays were carried out at 25° C. in the PBS buffer (pH 7.4) with 0.05% Tween-20 and 0.1% BSA. Recombinant human PD-L1 protein (19-238) with a His-tag at the C-terminus was purchased from AcroBiosystems (PD1-H5229). Recombinant human PD-1 protein (25-167) with Fc tag at the C-terminus was also purchased from AcroBiosystems (PD1-H5257). PD-L1 and PD-1 proteins were diluted in the assay buffer and 10 μL was added to the plate well. Plates were centrifuged and proteins were preincubated with inhibitors for 40 minutes. The incubation was followed by the addition of 10 μL of HTRF detection buffer supplemented with Europium cryptate-labeled anti-human IgG (PerkinElmer-AD0212) specific for Fc and anti-His antibody conjugated to SureLight®-Allophycocyanin (APC, PerkinElmer-AD0059H). After centrifugation, the plate was incubated at 25° C. for 60 min. before reading on a PHERAstar FS plate reader (665 nm/620 nm ratio). Final concentrations in the assay were—3 nM PD1,10 nM PD-L1, 1 nM europium anti-human IgG and 20 nM anti-His-Allophycocyanin. IC50 determination was performed by fitting the curve of percent control activity versus the log of the inhibitor concentration using the GraphPad Prism 5.0 software.

Assay [1] concerns U2OS/PD-L1 cells and Jurkat-PD-1-SHP cells. Nature of the assay: Src homology region 2 domain-containing phosphatase (SHP) assay. The note with it: Homo sapiens; U2OS/PD-L1 cells with Jurkat-PD-1-SHP cells, 2 hours. The format is cell-based. The procedure: Example B. Src Homology Region 2 Domain-Containing Phosphatase (SHP) Assay
U2OS/PD-L1 cells (DiscoveRx Corporation) were maintained in McCoy's 5A medium with addition of 10% FBS, 0.25 μg/ml Puromycin. After removing the culture media, the cell medium was replaced with assay medium (RPMI1640 medium with 1% FBS). The U2OS/PD-L1 cells were then added in 384-well black clear bottom assay plate (CELLCOAT® Tissue Culture Plates, Greiner Bio-One) at 5000 cells per well in 20 μL assay medium. Test compounds were prepared by serial dilution in DMSO and 125 nL compound were first transferred to the 384 REMP plate well (Thermofisher) by ECHO liquid handler (Labcyte) followed with addition of 27.5 μL assay medium. 5 μL/well compounds in the assay medium were transferred to the cell plate with 0.05% DMSO in the final assay at 0.5 μM. Jurkat-PD-1-SHP cells (DiscoveRx Corporation) were cultured in RPMI1640 medium supplemented with 10% FBS, 250 μg/ml Hygromycin B, 500 μg/ml G418. After the replacement of culture media with assay medium, 5,000 Jurkat-PD-1-SHP cells in 20 μL were dispensed into each well. The assay plate was incubated at 37° C., 5% CO2 for 2 hours before 2.5 μL PathHunter reagent 1 (DiscoveRx Corporation) were added to each well. The assay plate was shaken for 1 min at 350 rpm in the dark followed with addition of 10 μL PathHunter reagent 2 (DiscoveRx Corporation). Chemiluminescent signal was recorded with TopCount reader (Perkin Elmer) after incubation at room temperature for 1 hour. Wells with DMSO were served as the positive controls and wells containing no cells were used as negative controls. IC50 determination was performed by fitting the curve of percentage of control activity versus the log of the compound concentration using the GraphPad Prism 6.0 software.

The subject of assay [2] is PD-L1 aAPC/CHO-K1 cells and Jurkat-PD-1-NFAT effector cells. Briefly: Nuclear factor of activated T-cells (NFAT) assay. The format is cell-based. The note with it: Cricetulus griseus; PD-L1 aAPC/CHO-K1 cells with Jurkat-PD-1-NFAT effector cells, 24 hours. As for the experimental part: Example C. Nuclear Factor of Activated T-Cells (NFAT) Assay
PD-L1 aAPC/CHO-Klcells (Promega) were maintained in F-12 medium with addition of 10% FBS, 200 μg/ml Hygromycin B, 250 μg/ml Geneticin (G418). Jurkat-PD-1-NFAT effector cells (Promega) were cultured in RPMI 1640 medium supplemented with 10% FBS, 100 μg/ml Hygromycin B, 500 μg/ml G418. The culture media of PD-L1 aAPC/CHO-K1 cells were first replaced with assay medium (RPMI1640 medium with 1% FBS). The PD-L1 aAPC/CHO-K1 cells were then added in a white 384-well white clear bottom assay plate (CELLCOAT® Tissue Culture Plates, Greiner Bio-One) at 8000 per well in 10 μL assay medium. Test compounds were prepared by serial dilution in DMSO and 0.8 μL test compounds in DMSO were first transferred to the 384 REMP plate well (Thermofisher) by PlateMate Plus (Thermofisher) followed with addition of 50 μL plating medium. 5 μL compounds in the assay medium were transferred to the cells with 0.4% DMSO in the final assay at 2 μM. After removing the culture media, 10,000 Jurkat-PD-1-NFAT effector cells in 5 μL assay medium was dispensed into each well. The assay plate was incubated at 37° C., 5% CO2 for 24 hours. After the assay plate was equilibrated to room temp for 15 minutes, 20 µL/well of Bio-Glo™ reagent (Promega) were added. After 8 minutes incubation at room temperature, luminescence was read at with Pherastar microplate reader (BMG Labtech). The fold of induction (FOI) was calculated based on the ratio of luminescence normalized to the DMSO wells within each assay plate. The maximum percentage of induction was reported based on the ratio between the highest FOI of each compound and the maximum FOI of control compound within each assay plate. Wells with DMSO were served as the negative controls and wells containing control compound with the highest FOI were used as positive controls. EC50 determination was performed by fitting the curve of percent control activity versus the log of the compound concentration using the GraphPad Prism 6.0 software.

For another assay, the target named is PD-L1 (Homo sapiens (Human), UniProt Q9NZQ7). Briefly: PD-L1 whole blood internalization assay. The assay is classed as cell-based. The note with it: 1 ng/ml human interferon γ, PD-L1 expression on CD14+ cells, read-out: Whole Blood (24 HR) IC50. The procedure: Example D. PD-L1 Whole Blood Internalization Assay
To determine PD-L1 internalization in human whole blood, normal human blood (Biological Specialty Corp, Colmar. Pa.) was incubated in the presence or absence of a concentration range of test compounds and 1 ng/ml human interferon γ (R&D Systems Inc. Minn. […] Blood was then stained with PD-L1 (MIH1, eBioscience; or BD Biosciences San Jose, Calif.), CD14 (Life Technologies, Carlsbad, Calif.) for 30 minutes in the dark at room temperature. Whole Blood/red cells were lysed/fixed (lysis buffer BD Biosciences) for 5 minutes at 37° C. in the dark and then centrifuged at 1600 RPM for 5 minutes. Cells were resuspended in Stain Buffer (BD Bioscience, San Jose, Calif.) and transferred into 96 well round bottom plates (Corning). Cells were gated on CD14+(BD Biosciences) and PD-L1 expression determined by mean fluorescence intensity (MFI) (BD LSRFortessa™ X-20). IC50 determination was performed by fitting the curve of compound percent inhibition versus the log of the compound concentration using the GraphPad Prism 7.0 software.

Each structure is given as a SMILES string. Bounds are passed on as bounds.

PD-L1, sequence (Q9NZQ7 19-290): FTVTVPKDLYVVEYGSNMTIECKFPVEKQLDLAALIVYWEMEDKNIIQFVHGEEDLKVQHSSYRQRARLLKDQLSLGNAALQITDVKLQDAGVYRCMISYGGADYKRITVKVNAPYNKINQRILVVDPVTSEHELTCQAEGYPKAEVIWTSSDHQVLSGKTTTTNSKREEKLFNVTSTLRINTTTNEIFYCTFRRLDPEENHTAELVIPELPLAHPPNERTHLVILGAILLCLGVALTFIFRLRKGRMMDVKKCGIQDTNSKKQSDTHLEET
PD-1/PD-L1, sequence (Q9NZQ7 19-238): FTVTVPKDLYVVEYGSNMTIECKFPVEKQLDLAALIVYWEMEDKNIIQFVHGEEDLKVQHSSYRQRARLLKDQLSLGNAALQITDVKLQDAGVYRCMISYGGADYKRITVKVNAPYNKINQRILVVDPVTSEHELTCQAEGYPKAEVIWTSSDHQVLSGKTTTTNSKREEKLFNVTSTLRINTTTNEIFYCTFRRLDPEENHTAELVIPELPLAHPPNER

`Cc1c(Nc2nc(C(F)F)nc3cc(CN4CC[C@](C)(O)C4)cnc23)cccc1-c1cccc(-c2nc3cc(CN4CCC(C(=O)O)CC4)cc(C#N)c3o2)c1C` [Example 31, (S)-1-((7-cyano-2-(3′-(2-(difluoromethyl)-7-((3-hydroxy-3-methylpyrrolidin-1-yl)methyl)pyrido[3,2-d]pyrimidin-4-ylamino)-2,2′-dimethylbiphenyl-3-yl)benzo[d]oxazol-5-yl)methyl)piperidine-4-carboxylic Acid]: the IC50 (in general, the concentration at which inhibition is half-maximal) at PD-1/PD-L1 was not above 10 nM; in assay [1], not above 10 nM; at PD-L1, 10 to 100 nM. For the same compound, the concentration giving a half-maximal response (EC50) – broadly, the concentration needed to bring the measured effect to its halfway point – in assay [2] is not above 10 nM.

In the case of `Cc1cc2cc(CN3CC[C@@H](O)C3)cnc2c(Nc2cccc(-c3cccc(-c4nc5cc(CN6CC[C@@H](C(=O)O)C6)cc(C#N)c5o4)c3C)c2C)n1` [Example 33, (R)-1-((7-cyano-2-(3′-(3-(((R)-3-hydroxypyrrolidin-1-yl)methyl)-6-methyl-1,7-naphthyridin-8-ylamino)-2,2′-dimethylbiphenyl-3-yl)benzo[d]oxazol-5-yl)methyl)pyrrolidine-3-carboxylic Acid], the IC50 in assay [1] was not above 10 nM; at PD-L1, 10 to 100 nM. In assay [2], the EC50 was not above 10 nM.

Consider `Cc1c(Nc2nc(C(F)(F)F)nc3cc(CN4CC[C@@H](O)C4)cnc23)cccc1-c1cccc(-c2nc3cc(CN4CC[C@@](C)(C(=O)O)C4)cc(C#N)c3o2)c1C` [Example 21, (R)-1-((7-cyano-2-(3′-(7-(((R)-3-hydroxypyrrolidin-1-yl)methyl)-2-(trifluoromethyl)pyrido[3,2-d]pyrimidin-4-ylamino)-2,2′-dimethylbiphenyl-3-yl)benzo[d]oxazol-5-yl)methyl)-3-methylpyrrolidine-3-carboxylic Acid], for which the IC50 in assay [1] is not above 10 nM; on PD-L1 it was 10 to 100 nM. In addition, the EC50 in assay [2] lay in the range of 10 to 100 nM.

As for `Cc1nc(Nc2cccc(-c3cccc(-c4nc5cc(CN6CC[C@@](C)(C(=O)O)C6)cc(C#N)c5o4)c3C)c2C)c2ncc(CNC[C@H](C)O)cc2n1` [Example 15, (R)-1-((7-cyano-2-(3′-(7-(((S)-2-hydroxypropylamino)methyl)-2-methylpyrido[3,2-d]pyrimidin-4-ylamino)-2,2′-dimethylbiphenyl-3-yl)benzo[d]oxazol-5-yl)methyl)-3-methylpyrrolidine-3-carboxylic Acid], the half-maximal inhibitory concentration (IC50) (on PD-1/PD-L1; in assay [1]) was not above 10 nM in each case. The compound also showed an EC50 in assay [2] of 10 to 100 nM.

Take `Cc1nc(Nc2cccc(-c3cccc(-c4nc5cc(CN6CC[C@@H](C(=O)O)C6)cc(C#N)c5o4)c3C)c2C)c2ncc(CN[C@@H](C)CO)cc2n1` [Example 9, (R)-1-((7-cyano-2-(3′-(7-(((S)-1-hydroxypropan-2-ylamino)methyl)-2-methylpyrido[3,2-d]pyrimidin-4-ylamino)-2,2′-dimethylbiphenyl-3-yl)benzo[d]oxazol-5-yl)methyl)pyrrolidine-3-carboxylic Acid]: the IC50 (on PD-1/PD-L1; in assay [1]) was not above 10 nM throughout. Besides, in assay [2], the EC50 was 10 to 100 nM.

On to `Cc1c(Nc2nc(C(F)(F)F)nc3cc(CN4CC[C@@H](O)C4)cnc23)cccc1-c1cccc(-c2nc3cc(CN4CC[C@@H](C(=O)O)C4)cc(C#N)c3o2)c1C` [Example 20, (R)-1-((7-cyano-2-(3′-(7-(((R)-3-hydroxypyrrolidin-1-yl)methyl)-2-(trifluoromethyl)pyrido[3,2-d]pyrimidin-4-ylamino)-2,2′-dimethylbiphenyl-3-yl)benzo[d]oxazol-5-yl)methyl)pyrrolidine-3-carboxylic Acid], for which the IC50 in assay [1] was not above 10 nM; on PD-L1 it was 10 to 100 nM. For the same compound, the concentration for a half-maximal effect (EC50) in assay [2] lay within 10 to 100 nM.

With `Cc1c(Nc2nc(C(F)(F)F)nc3cc(CN4CC[C@@H](O)C4)cnc23)cccc1-c1cccc(-c2nc3cc(CN4CCC(C(=O)O)CC4)cc(C#N)c3o2)c1C` [Example 19, (R)-1-((7-cyano-2-(3′-(7-((3-hydroxypyrrolidin-1-yl)methyl)-2-(trifluoromethyl)pyrido[3,2-d]pyrimidin-4-ylamino)-2,2′-dimethylbiphenyl-3-yl)benzo[d]oxazol-5-yl)methyl)piperidine-4-carboxylic Acid], the IC50 is not above 10 nM in assay [1] and 10 to 100 nM at PD-L1. In assay [2], this compound came in with a half-maximal effective concentration (EC50) of 10 to 100 nM.

For `Cc1nc(Nc2cccc(-c3cccc(-c4nc5cc(CN6CC[C@@H](C(=O)O)C6)cc(C#N)c5o4)c3C)c2C)c2ncc(CNC[C@H](C)O)cc2n1` [Example 10, (R)-1-((7-cyano-2-(3′-(7-(((S)-2-hydroxypropylamino)methyl)-2-methylpyrido[3,2-d]pyrimidin-4-ylamino)-2,2′-dimethylbiphenyl-3-yl)benzo[d]oxazol-5-yl)methyl)pyrrolidine-3-carboxylic Acid], the IC50 (at PD-1/PD-L1; in assay [1]) was not above 10 nM each time. Also, in assay [2], the EC50 lay within 10 to 100 nM.
